# Laboratory results as given in ChEMBL document CHEMBL3297661, “1-Substituted-5-[(3,5-dinitrobenzyl)sulfanyl]-1H-tetrazoles and their isosteric analogs: A new class of selective antitubercular agents active against drug-susceptible and multidrug-resistant mycobacteria” (Eur J Med Chem, 2014).
# How the values were obtained:
# Nakaseomyces glabratus [1] = test: Antifungal activity against Candida glabrata 20/I after 24 hrs by broth microdilution method; assay type: functional
# Enterococcus faecalis [2] = test: Antibacterial activity against Enterococcus faecalis J 14365/08 after 24 hrs by broth microdilution method; assay type: functional; conditions: J 14365/08, 24 h
# Pseudomonas aeruginosa [3] = test: Antibacterial activity against Pseudomonas aeruginosa ATCC 9027 after 48 hrs by broth microdilution method; assay type: functional; conditions: ATCC 9027, 48 h
# [4] = Cytotoxicity against human HuH7 cells assessed as reduction in cell viability after 48 hrs by MTT assay; assay type: cell-based; conditions: Huh-7, 48 h
# Aspergillus fumigatus [5] = test: Antifungal activity against Aspergillus fumigatus 231 after 24 hrs by broth microdilution method; assay type: functional, organism-based; conditions: Aspergillus fumigatus, 231, 24 h
# Candida tropicalis [6] = test: Antifungal activity against Candida tropicalis 156 after 24 hrs by broth microdilution method; assay type: functional; conditions: Candida tropicalis, 156, 24 h
# Staphylococcus aureus [7] = test: Antibacterial activity against methicillin-resistant Staphylococcus aureus H 5996/08 after 24 hrs by broth microdilution method; assay type: functional; conditions: H 5996/08, 24 h
# Staphylococcus aureus [8] = test: Antibacterial activity against methicillin-resistant Staphylococcus aureus H 5996/08 after 48 hrs by broth microdilution method; assay type: functional; conditions: H 5996/08, 48 h
# Pichia kudriavzevii [9] = test: Antifungal activity against Candida krusei E28 after 24 hrs by broth microdilution method; assay type: functional; conditions: E28, 24 h
# [10] = tested on: Trichophyton mentagrophytes; test: Antifungal activity against Trichophyton mentagrophytes 445 after 120 hrs by broth microdilution method; assay type: functional, organism-based; conditions: Trichophyton mentagrophytes, 445, 120 h
# [11] = tested on: Mycobacterium tuberculosis; test: Antimycobacterial activity against Mycobacterium tuberculosis CNCTC My 331/88 after 21 days by micromethod; assay type: functional; conditions: CNCTC My 331/88, 504 h
# Mycobacterium avium [12] = test: Antimycobacterial activity against Mycobacterium avium CNCTC My 330/88 after 14 days by micromethod; assay type: functional; conditions: CNCTC My 330/88, 336 h
# Klebsiella pneumoniae [13] = test: Antibacterial activity against Klebsiella pneumoniae D 11750/08 after 48 hrs by broth microdilution method; assay type: functional; conditions: D 11750/08, 48 h
# Klebsiella pneumoniae [14] = test: Antibacterial activity against extended spectrum beta-lactamase producing Klebsiella pneumoniae J 14368/08 after 48 hrs by broth microdilution method; assay type: functional; conditions: J 14368/08, 48 h
# Escherichia coli [15] = test: Antibacterial activity against Escherichia coli ATCC 8739 after 48 hrs by broth microdilution method; assay type: functional; conditions: ATCC 8739, ATCC 8739, 48 h
# Pseudomonas aeruginosa [16] = test: Antibacterial activity against Pseudomonas aeruginosa ATCC 9027 after 24 hrs by broth microdilution method; assay type: functional; conditions: ATCC 9027, 24 h
# Candida albicans [17] = test: Antifungal activity against Candida albicans ATCC 44859 after 48 hrs by broth microdilution method; assay type: functional; conditions: ATCC 44859, 48 h
# Candida tropicalis [18] = test: Antifungal activity against Candida tropicalis 156 after 48 hrs by broth microdilution method; assay type: functional; conditions: Candida tropicalis, 156, 48 h
# Klebsiella pneumoniae [19] = test: Antibacterial activity against extended spectrum beta-lactamase producing Klebsiella pneumoniae J 14368/08 after 24 hrs by broth microdilution method; assay type: functional; conditions: J 14368/08, 24 h
# Lichtheimia corymbifera [20] = test: Antifungal activity against Absidia corymbifera 272 after 24 hrs by broth microdilution method; assay type: functional, organism-based; conditions: Lichtheimia corymbifera, 272, 24 h
# [21] = Cytotoxicity against MDCK2 cells assessed as reduction in cell viability after 48 hrs by MTT assay; assay type: cell-based; conditions: Canis lupus familiaris, MDCK-II
# Pichia kudriavzevii [22] = test: Antifungal activity against Candida krusei E28 after 48 hrs by broth microdilution method; assay type: functional; conditions: E28, 48 h
# Staphylococcus aureus [23] = test: Antibacterial activity against Staphylococcus aureus ATCC 6538 after 48 hrs by broth microdilution method; assay type: functional; conditions: ATCC 6538, 48 h
# Trichosporon asahii [24] = test: Antifungal activity against Trichosporon asahii 1188 after 48 hrs by broth microdilution method; assay type: functional; conditions: Trichosporon asahii, 1188, 48 h
# Klebsiella pneumoniae [25] = test: Antibacterial activity against Klebsiella pneumoniae D 11750/08 after 24 hrs by broth microdilution method; assay type: functional; conditions: D 11750/08, 24 h
# Staphylococcus aureus [26] = test: Antibacterial activity against Staphylococcus aureus ATCC 6538 after 24 hrs by broth microdilution method; assay type: functional; conditions: ATCC 6538, 24 h
# [27] = Cytotoxicity against MDCK2 cells assessed as cell viability at 30 uM after 48 hrs by MTT assay; assay type: cell-based, Canis lupus familiaris, MDCK-II; conditions: dog, read-out: Activity
# Mycobacterium kansasii [28] = test: Antimycobacterial activity against Mycobacterium kansasii CNCTC My 235/80 after 14 days by micromethod; assay type: functional; conditions: CNCTC My 235/80, 336 h
# Enterococcus faecalis [29] = test: Antibacterial activity against Enterococcus faecalis J 14365/08 after 48 hrs by broth microdilution method; assay type: functional; conditions: J 14365/08, 48 h
# [30] = Cytotoxicity against human HuH7 cells assessed as cell viability at 30 uM after 48 hrs by MTT assay; assay type: cell-based, Huh-7; conditions: read-out: Activity
# [31] = Cytotoxicity against human HeLa cells assessed as cell viability at 30 uM after 48 hrs by MTT assay; assay type: cell-based; conditions: read-out: Activity
# HeLa = test: Cytotoxicity against human HeLa cells assessed as reduction in cell viability after 48 hrs by MTT assay; assay type: cell-based
# [32] = tested on: Staphylococcus epidermidis; test: Antibacterial activity against Staphylococcus epidermidis H 6966/08 after 24 hrs by broth microdilution method; assay type: functional; conditions: H 6966/08, 24 h
# Mycobacterium kansasii [33] = test: Antimycobacterial activity against Mycobacterium kansasii CNCTC My 235/80 after 7 days by micromethod; assay type: functional; conditions: CNCTC My 235/80, 168 h
# Trichosporon asahii [34] = test: Antifungal activity against Trichosporon asahii 1188 after 24 hrs by broth microdilution method; assay type: functional; conditions: Trichosporon asahii, 1188, 24 h
# [35] = tested on: Trichophyton mentagrophytes; test: Antifungal activity against Trichophyton mentagrophytes 445 after 72 hrs by broth microdilution method; assay type: functional, organism-based; conditions: Trichophyton mentagrophytes, 445, 72 h
# Escherichia coli [36] = test: Antibacterial activity against Escherichia coli ATCC 8739 after 24 hrs by broth microdilution method; assay type: functional; conditions: ATCC 8739, ATCC 8739, 24 h
# [37] = Cytotoxicity against human HepG2 cells assessed as cell viability at 30 uM after 48 hrs by MTT assay; assay type: cell-based; conditions: read-out: Activity
# Mycobacterium kansasii [38] = test: Antimycobacterial activity against Mycobacterium kansasii 6509/96 after 21 days by micromethod; assay type: functional; conditions: 6509/96, 504 h
# Mycobacterium kansasii [39] = test: Antimycobacterial activity against Mycobacterium kansasii 6509/96 after 7 days by micromethod; assay type: functional; conditions: 6509/96, 168 h
# Nakaseomyces glabratus [40] = test: Antifungal activity against Candida glabrata 20/I after 48 hrs by broth microdilution method; assay type: functional
# Candida albicans [41] = test: Antifungal activity against Candida albicans ATCC 44859 after 24 hrs by broth microdilution method; assay type: functional; conditions: ATCC 44859, 24 h
# HepG2 = test: Cytotoxicity against human HepG2 cells assessed as reduction in cell viability after 48 hrs by MTT assay; assay type: cell-based; conditions: HepG2, 48 h
# Lichtheimia corymbifera [42] = test: Antifungal activity against Absidia corymbifera 272 after 48 hrs by broth microdilution method; assay type: functional, organism-based; conditions: Lichtheimia corymbifera, 272, 48 h
# Mycobacterium kansasii [43] = test: Antimycobacterial activity against Mycobacterium kansasii CNCTC My 235/80 after 21 days by micromethod; assay type: functional; conditions: CNCTC My 235/80, 504 h
# Mycobacterium avium [44] = test: Antimycobacterial activity against Mycobacterium avium CNCTC My 330/88 after 21 days by micromethod; assay type: functional; conditions: CNCTC My 330/88, 504 h
# Mycobacterium kansasii [45] = test: Antimycobacterial activity against Mycobacterium kansasii 6509/96 after 14 days by micromethod; assay type: functional; conditions: 6509/96, 336 h
# [46] = tested on: Mycobacterium tuberculosis; test: Antimycobacterial activity against Mycobacterium tuberculosis CNCTC My 331/88 after 14 days by micromethod; assay type: functional; conditions: CNCTC My 331/88, 336 h
# [47] = tested on: Staphylococcus epidermidis; test: Antibacterial activity against Staphylococcus epidermidis H 6966/08 after 48 hrs by broth microdilution method; assay type: functional; conditions: H 6966/08, 48 h
# Aspergillus fumigatus [48] = test: Antifungal activity against Aspergillus fumigatus 231 after 48 hrs by broth microdilution method; assay type: functional, organism-based; conditions: Aspergillus fumigatus, 231, 48 h
structure (smiles),measurement,setting,value
O=[N+]([O-])c1cc(CSc2nnnn2Cc2ccccc2)cc([N+](=O)[O-])c1,IC80,Nakaseomyces glabratus [1],> 500 µM
same,IC95,Enterococcus faecalis [2],> 500 µM
same,IC95,Pseudomonas aeruginosa [3],> 500 µM
same,IC50,[4],> 30 µM
same,IC50,Aspergillus fumigatus [5],> 500 µM
same,IC80,Candida tropicalis [6],> 500 µM
same,IC95,Staphylococcus aureus [7],> 500 µM
same,IC95,Staphylococcus aureus [8],> 500 µM
same,IC80,Pichia kudriavzevii [9],> 500 µM
same,IC50,[10],> 500 µM
same,MIC,[11],2 µM
same,MIC,Mycobacterium avium [12],250 µM
same,IC95,Klebsiella pneumoniae [13],> 500 µM
same,IC95,Klebsiella pneumoniae [14],> 500 µM
same,IC95,Escherichia coli [15],> 500 µM
same,IC95,Pseudomonas aeruginosa [16],> 500 µM
same,IC80,Candida albicans [17],> 500 µM
same,IC80,Candida tropicalis [18],> 500 µM
same,IC95,Klebsiella pneumoniae [19],> 500 µM
same,IC50,Lichtheimia corymbifera [20],> 500 µM
same,IC50,[21],> 30 µM
same,IC80,Pichia kudriavzevii [22],> 500 µM
same,IC95,Staphylococcus aureus [23],> 500 µM
same,IC80,Trichosporon asahii [24],> 500 µM
same,IC95,Klebsiella pneumoniae [25],> 500 µM
same,IC95,Staphylococcus aureus [26],> 500 µM
same,"viability at 48 h, 30 µM",[27],87%
same,MIC,Mycobacterium kansasii [28],8 µM
same,IC95,Enterococcus faecalis [29],> 500 µM
same,"viability at 48 h, 30 µM",[30],112%
same,"viability at 48 h, 30 µM",[31],91%
same,IC50,HeLa,> 30 µM
same,IC95,[32],> 500 µM
same,MIC,Mycobacterium kansasii [33],2 µM
same,IC80,Trichosporon asahii [34],> 500 µM
same,IC50,[35],> 500 µM
same,IC95,Escherichia coli [36],> 500 µM
same,"viability at 48 h, 30 µM",[37],94%
same,MIC,Mycobacterium kansasii [38],4 µM
same,MIC,Mycobacterium kansasii [39],2 µM
same,IC80,Nakaseomyces glabratus [40],> 500 µM
same,IC80,Candida albicans [41],> 500 µM
same,IC50,HepG2,> 30 µM
same,IC50,Lichtheimia corymbifera [42],> 500 µM
same,MIC,Mycobacterium kansasii [43],8 µM
same,MIC,Mycobacterium avium [44],250 µM
same,MIC,Mycobacterium kansasii [45],4 µM
same,MIC,[46],1 µM
same,IC95,[47],> 500 µM
same,IC50,Aspergillus fumigatus [48],> 500 µM
O=[N+]([O-])c1cc(CSc2nnnn2C2CCCCC2)cc([N+](=O)[O-])c1,IC80,Nakaseomyces glabratus [1],> 500 µM
same,IC95,Enterococcus faecalis [2],> 500 µM
same,IC95,Pseudomonas aeruginosa [3],> 500 µM
same,IC50,[4],> 30 µM
same,IC50,Aspergillus fumigatus [5],> 500 µM
same,IC80,Candida tropicalis [6],> 500 µM
same,IC95,Staphylococcus aureus [7],> 500 µM
same,IC95,Staphylococcus aureus [8],> 500 µM
same,IC80,Pichia kudriavzevii [9],> 500 µM
same,IC50,[10],> 500 µM
same,MIC,[11],1 µM
same,MIC,Mycobacterium avium [12],16 µM
same,IC95,Klebsiella pneumoniae [13],> 500 µM
same,IC95,Klebsiella pneumoniae [14],> 500 µM
same,IC95,Escherichia coli [15],> 500 µM
same,IC95,Pseudomonas aeruginosa [16],> 500 µM
same,IC80,Candida albicans [17],> 500 µM
same,IC80,Candida tropicalis [18],> 500 µM
same,IC95,Klebsiella pneumoniae [19],> 500 µM
same,IC50,Lichtheimia corymbifera [20],> 500 µM
same,IC50,[21],> 30 µM
same,IC80,Pichia kudriavzevii [22],> 500 µM
same,IC95,Staphylococcus aureus [23],> 500 µM
same,IC80,Trichosporon asahii [24],> 500 µM
same,IC95,Klebsiella pneumoniae [25],> 500 µM
same,IC95,Staphylococcus aureus [26],> 500 µM
same,"viability at 48 h, 30 µM",[27],98%
same,MIC,Mycobacterium kansasii [28],4 µM
same,IC95,Enterococcus faecalis [29],> 500 µM
same,"viability at 48 h, 30 µM",[30],128%
same,"viability at 48 h, 30 µM",[31],84%
same,IC50,HeLa,> 30 µM
same,IC95,[32],> 500 µM
same,MIC,Mycobacterium kansasii [33],4 µM
same,IC80,Trichosporon asahii [34],> 500 µM
same,IC50,[35],> 500 µM
same,IC95,Escherichia coli [36],> 500 µM
same,"viability at 48 h, 30 µM",[37],88%
same,MIC,Mycobacterium kansasii [38],4 µM
same,MIC,Mycobacterium kansasii [39],2 µM
same,IC80,Nakaseomyces glabratus [40],> 500 µM
same,IC80,Candida albicans [41],> 500 µM
same,IC50,HepG2,> 30 µM
same,IC50,Lichtheimia corymbifera [42],> 500 µM
same,MIC,Mycobacterium kansasii [43],4 µM
same,MIC,Mycobacterium avium [44],32 µM
same,MIC,Mycobacterium kansasii [45],2 µM
same,MIC,[46],1 µM
same,IC95,[47],> 500 µM
same,IC50,Aspergillus fumigatus [48],> 500 µM
